Structures are written as SMILES. “And” between values parts separate entries of the source, which are not always exact repeats. Equal values may be shown once. “Also recorded” adds a separate entry of the source. Read-outs that look alike come from different tables or passages of the source.

Test [1] addresses T1, GIRK1/2 (UniProt P48542+P48549).
T1 sequence (P48549 1-501): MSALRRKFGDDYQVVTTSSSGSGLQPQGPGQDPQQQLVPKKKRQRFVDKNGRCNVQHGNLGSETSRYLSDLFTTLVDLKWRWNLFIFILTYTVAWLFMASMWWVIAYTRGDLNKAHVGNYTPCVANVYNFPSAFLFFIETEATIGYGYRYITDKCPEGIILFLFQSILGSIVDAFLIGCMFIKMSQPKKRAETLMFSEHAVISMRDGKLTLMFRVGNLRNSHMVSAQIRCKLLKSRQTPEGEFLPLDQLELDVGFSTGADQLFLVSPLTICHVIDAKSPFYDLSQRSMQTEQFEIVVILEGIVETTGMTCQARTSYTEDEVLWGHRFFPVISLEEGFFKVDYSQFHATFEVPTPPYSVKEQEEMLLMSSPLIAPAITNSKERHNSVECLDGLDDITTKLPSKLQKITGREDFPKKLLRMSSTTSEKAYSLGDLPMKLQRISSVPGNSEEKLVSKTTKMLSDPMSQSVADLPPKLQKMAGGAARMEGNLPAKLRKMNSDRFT
T1 sequence (P48542 1-425): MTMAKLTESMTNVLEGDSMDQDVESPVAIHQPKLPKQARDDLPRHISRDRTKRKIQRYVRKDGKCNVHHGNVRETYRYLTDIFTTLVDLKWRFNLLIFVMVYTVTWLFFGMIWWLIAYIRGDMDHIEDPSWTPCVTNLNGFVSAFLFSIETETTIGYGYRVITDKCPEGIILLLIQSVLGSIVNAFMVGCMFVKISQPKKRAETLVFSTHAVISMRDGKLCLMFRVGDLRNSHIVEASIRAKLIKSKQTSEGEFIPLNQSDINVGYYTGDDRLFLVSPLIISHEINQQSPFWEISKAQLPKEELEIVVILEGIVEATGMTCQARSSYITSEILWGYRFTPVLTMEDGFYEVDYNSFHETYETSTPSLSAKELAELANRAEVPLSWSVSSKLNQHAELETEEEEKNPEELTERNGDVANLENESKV
Kind of test: two-electrode voltage clamp (TEVC) in Xenopus oocytes expressing GIRK1/2 wild-type. Details: expressed in transfected cells; host or cells: Xenopus laevis oocytes (cRNA injection). The format is cell-based, human GIRK1, mouse GIRK2. Conditions: for selectivity for GIRK1/2 over GIRK1/4 (in words) / EC50: TEVC; for selectivity for GIRK1/2 over GIRK1/4 (in words): GIRK1/2 versus GIRK1/4; for EC50: Xenopus oocytes, GIRK1/2 wild-type; for EMAX at GIRK1/2: current normalized to basal current. From the text:
Molecular biology: For Xenopus oocyte expression, human GIRK1 and human GIRK4 cDNAs were subcloned into pGEMHE. For mammalian expression, human GIRK1 and human GIRK4 cDNAs were subcloned into pcDNA3 and pcDNA3.1/V5-His B, respectively (Invitrogen). Mouse GIRK2 cDNA was subcloned in the dual-function vector, pXoom. Point mutations were introduced using a standard Pfu-based mutagenesis technique according to the QuikChange protocol (Agilent). Mutations were verified by sequencing.
(§1) Xenopus laevis oocyte expression: Plasmid DNAs of GIRK channel subunits were linearized prior to in vitro transcription. Capped RNAs were transcribed using mMESSAGE mMACHINE T7 Transcription Kit (Thermo Fisher Scientific). Xenopus oocytes were surgically extracted, dissociated and defolliculated by collagenase treatment, and microinjected with 50 nl of a water solution containing 1 ng of each GIRK subunit RNA. For TEVC experiments, oocytes were kept 2 days at 17° C. before recording, while for NPo experiments oocytes were incubated for up to 4 days at 17° C.
Xenopus laevis oocyte expression: All cDNA constructs in the pGEMHE vector were linearized using the NheI restriction enzyme, whereas those in the pXoom vector were linearized using the XhoI restriction enzyme. Linearized cDNAs were in vitro-transcribed using the mMessage mMachine® kit (Ambion) kit. Complementary RNA (cRNA) concentrations were quantified by optical density. Xenopus oocytes were surgically extracted, dissociated, and defolliculated by collagenase treatment and microinjected with 50 nl of the desired cRNAs diluted in RNAase-free water. The use of Xenopus laevis frogs for this study was approved by the Institutional Animal Care and Use Committee (IACUC) at Northeastern University. All constructs used in this study were injected to achieve between 1-2 ng per oocyte depending on the channel. Oocytes were incubated for 2 days at 18° C.
Electrophysiology of oocytes: Whole-oocyte currents were measured by conventional two-electrode voltage clamp (TEVC) with a GeneClamp 500 amplifier (Axon Instruments). […] Barium-sensitive currents were normalized to average basal current in the vehicle solutions. The HK solution contained the following: 96 mM KCl, 1 mM NaCl, 1 mM MgCl2, 5 mM KOH/HEPES, pH 7.4. The barium solution consisted of HK+10 mM BaCl2. Five to ten oocytes from the same batch (same frog) were recorded for each group, and the experiments were repeated in at least four batches. Data acquisition and analysis were carried out using pClamp9 (Molecular Devices) and OriginPro (Microcal) software.

For test [2], the target named is T1, GIRK1/2. Kind of test: diC8-PIP2 concentration-response (NPo), inside-out macropatches from Xenopus oocytes, GIRK1/2. Format: cell-based, human GIRK1, mouse GIRK2. Details: expressed in transfected cells; host or cells: Xenopus laevis oocytes (cRNA injection). The following applies: in the presence of 10 μM compound; for EMAX of diC8-PIP2 response (NPo), GIRK1/2: control 5.7±0.3; for apparent affinity of GIRK1/2 channels to diC8-PIP2: control 36±7 μM.
Text: The inventors next turned to inside-out macropatches from Xenopus oocytes to compare changes in the PIP2 sensitivity by examining diC8 concentration-responses in the absence and presence of saturating concentrations of each of the activating compounds. […] In FIG. 14B, the control plot overlays the GAT1508 and GAT1521 plots; only ML297 was able to left-shift the sensitivity of GIRK1/4 heteromers to PIP2, while both GAT1508 and GAT1521 were ineffective in changing the sensitivity of these heteromers to PIP2.
as §1
Oocyte macropatch studies: Macropatch GIRK channel activity was recorded from devitellinized oocytes under the inside-out mode of standard patch clamp methods using an AM2400 patch clamp amplifier (A-M systems). […] Oocytes were bathed with a solution comprising (in mM): 96 KCl, 5 EGTA, 1 MgATP and 10 HEPES (pH 7.4). Current amplitudes were measured at −80 mV with a sampling rate of 10 kHz. Data were analyzed using WinEDR and Clampfit software (Molecular Devices).

Where [3] appears, read: ML297 considered 100%, read-out: EMAX at GIRK1/2, % relative to ML297.

For orientation: EC50 means the concentration needed to bring the measured effect to its halfway point. Read a low EC50 as greater potency. Turning to `Cc1cc(NC(=O)Nc2ccc(C)s2)n(-c2ccccc2)n1` [GAT1521, 1-(3-methyl-1-phenyl-1H-pyrazol-5-yl)-3-(5-methylthiophen-2-yl)urea], the Emax at GIRK1/2 [1] (setting [3]) was determined as 73%. On GIRK1/2 [1], the “selectivity for GIRK1/2 over GIRK1/4 (in words)” value (“selectivity” below) is “most selective GIRK1/2 activators relative to GIRK1/4; also recorded: retained the specificity for brain over cardiac currents; also recorded: could induce the current increase only in the brain channel”, a half-maximal response (EC50) required 1.22 ± 0.08 µM and the “EMAX at GIRK1/2” value stood at 2.36±0.06. Besides, the “potency/efficacy compared to GAT1508 (in words)” value on GIRK1/2 [1] (concentration-response, FIGS. 34A-34I) is “lower potency than GAT1508”. For the same compound, at GIRK1/2 [2], the “EMAX of diC8-PIP2 response (NPo), GIRK1/2” value (shortened to “EMAX of diC8-PIP2 response”) was 9.1±0.2 and the “apparent affinity of GIRK1/2 channels to diC8-PIP2” value (from here on “apparent affinity”) is 11 ± 2 µM.

As to `Cc1cc(NC(=O)Nc2ccc(Br)s2)n(-c2ccccc2)n1` [GAT1508, 1-(5-bromothiophen-2-yl)-3-(3-methyl-1-phenyl-1H-pyrazol-5-yl)urea], the “GAT1508-induced potassium current, GIRK1/2 (in words)” value at GIRK1/2 [1] (10 μM, 10 mM K+, holding potential −100 mV) is listed as “significantly increased currents”. The “GAT1508-induced thallium current, GIRK1/2 (in words)” value on GIRK1/2 [1] (10 μM, 10 mM thallium, holding potential −100 mV) is “induced current increases”. In addition, the Emax at GIRK1/2 [1] (GAT1508 at wild-type GIRK1/2 considered 100%, read-out: EMAX, % of the control GIRK1/2) came to 100%. The Emax on GIRK1/2 [1] (setting [3]) turned out to be 76%. Besides, at GIRK1/2 [1], the “selectivity” value is “most selective GIRK1/2 activators relative to GIRK1/4; also recorded: could induce the current increase only in the brain channel”; the concentration giving a half-maximal response (EC50) amounted to 0.37 ± 0.11 µM; the “EMAX at GIRK1/2” value is 2.42±0.07 and 2.36±0.23. Moreover, at GIRK1/2 [2], the “EMAX of diC8-PIP2 response” value is 10.5±0.3 and the “apparent affinity” value came to 5.5 ± 7 µM.

Regarding `Cc1cc(NC(=O)Nc2ccc(F)c(F)c2)n(-c2ccccc2)n1` [ML297, reference compound], the “compound-induced current normalized to the basal current, GIRK1+GIRK2” value on GIRK1/2 [1] (10 μM, High Potassium (HK) solution, FIG. 31) was approximately 2.5. The “EMAX at GIRK1/2, % relative to ML297” value at GIRK1/2 [1] (ML297 considered 100%) worked out at 100%. Also, at GIRK1/2 [1], the “selectivity” value is “stimulated both brain and cardiac heteromeric channels”; the EC50 stood at 0.34 ± 0.12 µM; the “EMAX at GIRK1/2” value was determined as 2.87±0.11. At GIRK1/2 [2], the “EMAX of diC8-PIP2 response” value was 7.5±0.4 and the “apparent affinity” value is 23 ± 5 µM.

These data come from patent US12351574B2, “Selective ligands for modulation of GIRK channels” (Northeastern University, priority 2018, dated 2025).
